From patent publication US20060257441A1, “Natural essential oil sanitary insect pest repellent and its use” (SUZUKI YUSHI INDUSTRIAL CO., LTD., priority 2005, published 2006)

Test system: Croton bug
Experiment: Physiological activity (Croton bug repellency) test, Test Example 5
Type: in vivo
Details: 3% solution in 1:1 hexane/acetone
From the text: A fraction 1 (16.192 g) of copaiba oil was given by silica gel column chromatography (replenishment silica gel: BW-127ZH, 350 g) using 3 liter of hexane as an elution solvent. A fraction 2 (2.868 g) was given by silica gel column chromatography (same as above) using a 4:4:1 mixture of hexane/chloroform/ethyl acetate as an elution solvent. A fraction 3 (1.401 g) was given by fractionating the remnant of the fraction 2 using a 1:1 solvent mixture of ethyl acetate/chloroform 21 as an elution solvent.
For comparison, the same test was conducted using copaiba oil and β-caryophyllene. The specimen was a 3% solution in the solvent. The solution was given using a 1:1 (volume ratio) mixture of hexane and acetone.

C=C1CC/C=C(\C)CC[C@@H]2[C@@H]1CC2(C)C [β-caryophyllene]
Repellency ratio (%) with time (4 hours): 96.2%
Repellency ratio (%) with time (24 hours): 70.6%
Repellency ratio (%) with time (48 hours): 52.6%
